Laboratory results as given in US12214058B2, “Imaging methods using deuterated compounds” (Genentech, Inc., priority 2014, dated 2025).

Tests used:
[1] = system: tau (NFTs) in human brain tissues; test: Autoradiography on postmortem human brain tissues; type: binding
Method: Autoradiography The tracer [^18F][A] or [^18F][A]-d2 was dissolved in PBS containing 5% DMSO and 5% ethanol at final concentration 40 μCi/mL. Then 0.5 ml of stock solution was transferred to a microscope slide with 5 μm thick freshly dried section of a tissue and incubated for 90 min at room temperature. The slides were washed by dipping into following solutions: PBS for 1 min, 70% ethanol 2 min, 30% ethanol 2 min and PBS 1 min. The samples were dried at room temperature for 30 min and exposed to phosphorimager plate for 20 h. The exposed plates were scanned at 25 μm resolution.
Autoradiographic evaluation of [^18F][A] and [^18F][A]-d2 was performed using brain tissues collected postmortem from human donors. […] The positive staining was found in grey matter of tissues containing high level of NFTs and high AD-amyloid characterized as Braak score 5. […] The NFT and Aβ-amyloid burden was measured by standard immunohistochemical methods.

[2] = Microsomal stability assay, human liver microsomes; type: in vitro ADME; conditions: for amount of remaining compound: non-radiolabeled, 40 min
Method: Microsomal stability assays The tracer [^18F][A]-d2 or [^18F][A] was dissolved in potassium phosphate (Kpi) buffer (100 mM) at concentration 500-600 μCi/mL. The non-radioactive 7 and 10 were dissolved in Kpi buffer at 10 μM concentration. The reaction vessel was charged with human or mouse liver microsome suspension (12.5 μL, 20 mg/mL) followed by Kpi buffer (388 μL, 10 mM), NADPH (50 μL, 10 mM) and incubated at 37° C. for 5-10 min. A solution of the radioactive [^18F][A]-d2 or [^18F][A] (50 μL, […]) or non-radioactive 7 or […] (50 μL, 10 μM) were added to the reaction vessel and the mixture was incubated at 37° C. […] The supernatant was analyzed by LCMS (System E).

[3] = Microsomal stability assay, mouse liver microsomes; type: in vitro ADME; conditions: 5 min; for fraction of unmetabolized compound: non-radiolabeled
Method: (§1) Microsomal stability assays The tracer [^18F][A]-d2 or [^18F][A] was dissolved in potassium phosphate (Kpi) buffer (100 mM) at concentration 500-600 μCi/mL. The non-radioactive 7 and 10 were dissolved in Kpi buffer at 10 μM concentration. The reaction vessel was charged with human or mouse liver microsome suspension (12.5 μL, 20 mg/mL) followed by Kpi buffer (388 μL, 10 mM), NADPH (50 μL, 10 mM) and incubated at 37° C. for 5-10 min. A solution of the radioactive [^18F][A]-d2 or [^18F][A] (50 μL, 250-300 μCi) or non-radioactive 7 or 8 (50 μL, 10 μM) were added to the reaction vessel and the mixture was incubated at 37° C. Aliquots (50 μL) of the reaction mixture were taken at 5, 15 and 45 minutes post addition of the tested compound, mixed with ice-cold acetonitrile (100 μL) and centrifuged. The supernatant was analyzed by LCMS (System E).

[4] = Microsomal stability assay, rhesus liver microsomes; type: in vitro ADME
Method: as §1, with “E). The radiolabeled tracers [^18F][A] and [^18F][A]-d2 (n=3) were incubated with human, rhesus or mouse liver microsome suspension with or without NADPH at 37° C. and the mixture was analyzed for a presence of radioactive metabolites at 5, 15 and 45 min. In the presence of mouse and rhesus liver microsomes, both the [^18F][A] and [^18F][A]-d2 metabolized rapidly to ^18F-fluoride (retention time (rt)=0.38 min), and two radioactive metabolites M2 and M1 (rt=1.2 and 1.4 min). […]” for “E).”

[5] = Dynamic microPET imaging in mice; type: in vivo, mice (C57BL/6)
Method: MicroPET Imaging The PET imaging was performed on Inveon PET/CT scanner (Siemens Medical Solutions USA Inc.). Animals anesthetized with sevoflurane were placed head-first, prone position on the scanner bed and dynamic 45 min scans were initiated. Approximately 3.7 MBq of ^18F-radiolabeled tracer in isotonic solution (100-130 μL) was administered as 60 second intravenous infusion via the tail vein. Body temperature was measured by a rectal probe and maintained with warm air flow at 37° C. Full-body iterative image reconstructions were obtained using maximum a posteriori algorithm (MAP, hyperparameter β 0.05) and corrected for signal attenuation using the tissue density obtained from CT. Projections were created with PMOD 3.305 (PMOD Technologies, Ltd., Zurich, Switzerland) and used to obtain quantitative activity levels in each organ of interest using region-of-interest analysis.

[6] = target: tau aggregates in AD patient tissues; conditions: cited from earlier work

autoradiographic binding pattern ([1]; human brain tissues, positive staining in grey matter with high NFTs, Braak score 5) | fraction attributed to parent compound ([2]; radiolabeled, 45 min incubation, n=3) [%] | amount of parent compound ([3]; radiolabeled, n=3) [%] | stability of parent compound compared with mouse liver microsomes [4] | uptake in liver and kidneys, comparison of the two tracers ([5]; n=6) | peak uptake in brain ([5]; n=6, i.v., dynamic PET) [% ID/g] | amount of remaining compound [2] [%] | fraction of unmetabolized compound [3] [%] | bone uptake ([5]; n=6, 30-45 min post tracer injection) [% ID/g] | SMILES | staining of negative control tissues ([1]; high or moderate amyloid burden but no NFTs, Braak score 3 or 2) | Kd ([6]; AD patient tissues, read-out: affinity for tau aggregates in AD patient tissues) [nM] | selectivity for tau over Aβ amyloid [6] [fold]
tau specific binding patterns | 35.7±0.9 | 1.6±0.9 | slightly more stable | indistinguishable | 8.3±2.0 |  |  |  | [18F]CCC1CCN(c2ccn3c(n2)nc2ccccc23)CC1 [[^18F][A], 2-(1-(benzo[4,5]imidazo[1,2-a]pyrimidine-2-yl)piperidin-4-yl)-1-[^18F]fluoroethane, reference compound] | not positively stained | 22 | 27
 |  |  |  |  |  | 15 | 2 | 31.2±4.8 | FCCC1CCN(c2ccn3c(n2)nc2ccccc23)CC1 [[A], 2-(1-(benzo[4,5]imidazo[1,2-a]pyrimidine-2-yl)piperidin-4-yl)-1-fluoroethane, reference compound] |  |  | 
 |  |  |  |  |  | 56 | 11 |  | [2H]C([2H])(F)CC1CCN(c2ccn3c(n2)nc2ccccc23)CC1 [[A]-d2, 1,1-dideutero-2-(1-(benzo[4,5]imidazo[1,2-a]pyrimidine-2-yl)piperidin-4-yl)-1-fluoroethane] |  |  | 
